Test results: patent publication US6623933B1 (priority 1999, dated 2003)
Values joined by “and” are separate entries in the source; they are usually repeats but may differ in a detail not shown here. Equal entries are not always repeated. Structures can show the parent of a compound that is named as a salt. Where two headings read alike, the source gives them in different places.

Key:
[1] = molecular target: T1, NR1111/NR2A (Rattus norvegicus, UniProt P35439+Q00959); assay: NMDA-induced currents of NR1 splice variants, Xenopus oocytes, Example 4; type: cell-based; set-up: expressed in transfected cells; host or cells: Xenopus oocytes injected with NR1111 and NR2A mRNA; details: for NMDA nH / EC50 / maximum relative current (MRC) / percentage potentiation of the maximum NMDA response: NR1111/2A; for EC50: read-out: NMDA EC50
Experimental: (§1) Overnight cultures (500 ml) of transformed bacterial cells were prepared in order to grow sufficient quantities for maxiprep isolation of the plasmid CDNA. Maxipreps were done using a Sorvall RC-5B ultracentrifuge, Qiagen columns and cDNA was quantitated with spectrophotometry (OD260 and OD260/ OD280 ratio). The resulting plasmid cDNA was linearized by digestion with an appropriate restriction enzyme that cleaves distal to the cDNA insert (XhoI for NR2A or NotI for NR1100, NR1000, NR1111, NR1011, NR1101, NR1001). […] The samples were stored at −20° C. until use.
(§2) In vitro transcription was performed using the Ambion mMessage mMachine kit with T7 (NR1100, NR1000, NR1111, NR1011, NR1101, NR1001) RNA polymerase. The reaction was assembled on ice and allowed to incubate at 37° C. for 1-2 hr. The resulting mRNA was precipitated (reaction termination) using lithium chloride/5 mM EDTA solution and dissolved in RNase-free H2O. The concentration (OD260) and OD260/OD280 ratio (should be more than 1.5) was determined by spectrophotometer. The yield of mRNA was generally 15-30 μg. mRNA was stored at −80° C. until use.
(§3) Intracellular recording microelectrodes were fabricated from 100 μl borosilicate glass disposable micropipettes using a 2-step protocol on a standard horizontal Flaming-Brown micropipette puller.

[2] = molecular target: T2, NR1011/NR2A (Rattus norvegicus, UniProt P35439+Q00959); set-up: agonist Emax: dose or concentration left out as unconfirmed
[3] = molecular target: NR1001/NR2A (Rattus norvegicus, UniProt P35439+Q00959); set-up: agonist Emax: dose or concentration left out as unconfirmed
[4] = molecular target: NR1/NR2D (NR1100) (Rattus norvegicus, UniProt P35439+Q62645)
Text: (§4) Plasmids containing the NR1100 (NR1G) and NR2A cDNA inserts were kindly provided by Dr. Nakanishi (Kyoto University Faculty of Medicine, Kyoto, Japan). Plasmids containing the NR2B, NR2C and NR2D cDNA inserts were kindly provided by Dr. P. Seeburg (Heidelberg University, Heidelberg, Germany). Plasmids were linearized with appropriate restriction enzyme prior to in vitro transcription using the Message Machine kit (Ambion, Inc., Austin, Tex.).
(§5) Female, oocyte-positive Xenopus laevis frogs were purchased from Xenopus I (Dexter, Mich.). […] Oocytes were injected with 50 nL of RNA solutions using an electronic microinjector (Drummond Inc., Broomall, Pa.). […] The injected oocytes were used for experiments following 1-5 days of incubation in Barth's solution at 18-20° C.
(§6) The microelectrodes were fabricated from borosilicate glass capillaries with a programmed puller (Sutter Instrument Co., Calif.). Microelectrode resistance was 1-3 MΩ_when filled with 3 M KCl.
(§7) Except where otherwise stated, oocytes were clamped at a holding potential of −70 mV during data acquisition. The membrane current was filtered at 500 Hz and sampled at 100 Hz. Drugs were applied using a gravity-driven external perfusion system. The working volume of the recording chamber was 30 μl and the rate of the perfusion was 50 μl/sec. The drug application lasted 10 sec and was followed by 60 s wash. Data acquisition and external perfusion were controlled using custom-written software implemented in the SuperScope II development environment (GW Instruments, Mass.). All experiments were performed at room temperature of 22-24° C. Peak or steady-state current measurements were normalized and expressed as a fraction of the peak or steady-state control current measurements, which were performed before and after application of every single concentration of agonists or steroids.
(§8) Concentration-response data were analyzed by nonlinear regress ion using the logistic equation Response=Emax/(1+(EC50/c)^nH), where c is concentration, Emaxis the maximum response, nHis the Hill coefficient. The data are presented as mean±SEM. EC50values are averaged as logarithms (De Lean et al., Am. J. Physiol. 235: E97-E102 (1978))±the SEM of the log EC50. […] The pooled data were simultaneously fitted to the logistic equation, either with Emax and EC50 constrained to be identical in the presence and absence of PS, or allowing one or both to vary independently. […] This was regarded as indicating a significant treatment effect of PS, but the change in EC50and Emaxwas not considered significant. […] No attempt was made to test the generally small changes in nHfor statistical significance.

[5] = molecular target: NR1010/NR2A (Rattus norvegicus, UniProt P35439+Q00959); set-up: agonist nHill / agonist Emax: dose or concentration left out as unconfirmed
[6] = molecular target: T1, NR1111/NR2A; set-up: agonist Emax: dose or concentration left out as unconfirmed
[7] = molecular target: Penta-Mutant/NR2A (Rattus norvegicus, UniProt P35439+Q00959, K193A/K202A/R187A/R233A/R252A); assay: NMDA-induced currents, Xenopus oocytes, Example 5
Experimental: Plasmids were linearized with appropriate restriction enzyme prior to in vitro transcription using the Message Machine kit (Ambion, Inc., Austin, Tex.).
Female, oocyte positive Xenopus laevis frogs were purchased from Xenopus I (Dexter, Mich). […] Oocytes were injected with 50 nL of RNA solutions using an electronic microinjector (Drummond Inc., Broomall, Pa.). […] The injected oocytes were used for experiments following 1-5 days of incubation in Barth's solution at 18-20° C.
The microelectrodes were fabricated with a programmed puller (Sutter Instrument Co., Calif.) from borosilicate glass capillaries and were filled with 3 M KCl solution. The resistance of filled microelectrodes was in the range of 1-3 MΩ. […] If not mentioned otherwise, during data acquisition oocytes were clamped at a holding potential of −70 mV. The membrane current was filtered at 500 Hz and sampled at 100 Hz. Drugs were applied using a gravity driven external perfusion system. The working ,volume of the recording chamber was 30 μl and the rate of the perfusion was 50 μl/sec. The drug application lasted 10 sec and was followed by a 60 sec wash. The data acquisition and external perfusion control were done using the SuperScopeII software package (GW Instruments, Mass.). All experiments were performed at room temperature (22-24° C.). Peak or steady-state current measurements were normalized and expressed as a fraction of the peak or steady-state control current measurements, which were performed before and after application of every single consentration of agonist or steroid. […] The data are presented as mean±S.E.M. with number of experiments in parentheses.

[8] = molecular target: NR1/NR2C (NR1100) (Rattus norvegicus, UniProt P35439+Q00961)
Text: as §4, §5, §6, §7, §8

[9] = molecular target: NR1100/NR2A (Rattus norvegicus, UniProt P35439+Q00959); set-up: agonist nHill / agonist Emax: dose or concentration left out as unconfirmed
[10] = molecular target: NR1/NR2B (NR1100) (Rattus norvegicus, UniProt P35439+Q00960)
Text: as §4, §5, §6, §7, §8

[11] = molecular target: T2, NR1011/NR2A; assay: NMDA-induced currents of NR1 splice variants, Xenopus oocytes, Example 4; type: cell-based; set-up: expressed in transfected cells; host or cells: Xenopus oocytes injected with NR1011 and NR2A mRNA; details: for NMDA nH / EC50 / maximum relative current (MRC) / percentage potentiation of the maximum NMDA response: NR1011/2A; for EC50: read-out: NMDA EC50
Experimental: as §1, §2, §3

[12] = pH 7.5, read-out: percentage inhibition of the maximum NMDA response
[13] = 100 μM PS, 200 μM NMDA+10 μM glycine, pH 7.5

NR1001/NR2A, sequence (Q00959 23-1464, other chains not shown): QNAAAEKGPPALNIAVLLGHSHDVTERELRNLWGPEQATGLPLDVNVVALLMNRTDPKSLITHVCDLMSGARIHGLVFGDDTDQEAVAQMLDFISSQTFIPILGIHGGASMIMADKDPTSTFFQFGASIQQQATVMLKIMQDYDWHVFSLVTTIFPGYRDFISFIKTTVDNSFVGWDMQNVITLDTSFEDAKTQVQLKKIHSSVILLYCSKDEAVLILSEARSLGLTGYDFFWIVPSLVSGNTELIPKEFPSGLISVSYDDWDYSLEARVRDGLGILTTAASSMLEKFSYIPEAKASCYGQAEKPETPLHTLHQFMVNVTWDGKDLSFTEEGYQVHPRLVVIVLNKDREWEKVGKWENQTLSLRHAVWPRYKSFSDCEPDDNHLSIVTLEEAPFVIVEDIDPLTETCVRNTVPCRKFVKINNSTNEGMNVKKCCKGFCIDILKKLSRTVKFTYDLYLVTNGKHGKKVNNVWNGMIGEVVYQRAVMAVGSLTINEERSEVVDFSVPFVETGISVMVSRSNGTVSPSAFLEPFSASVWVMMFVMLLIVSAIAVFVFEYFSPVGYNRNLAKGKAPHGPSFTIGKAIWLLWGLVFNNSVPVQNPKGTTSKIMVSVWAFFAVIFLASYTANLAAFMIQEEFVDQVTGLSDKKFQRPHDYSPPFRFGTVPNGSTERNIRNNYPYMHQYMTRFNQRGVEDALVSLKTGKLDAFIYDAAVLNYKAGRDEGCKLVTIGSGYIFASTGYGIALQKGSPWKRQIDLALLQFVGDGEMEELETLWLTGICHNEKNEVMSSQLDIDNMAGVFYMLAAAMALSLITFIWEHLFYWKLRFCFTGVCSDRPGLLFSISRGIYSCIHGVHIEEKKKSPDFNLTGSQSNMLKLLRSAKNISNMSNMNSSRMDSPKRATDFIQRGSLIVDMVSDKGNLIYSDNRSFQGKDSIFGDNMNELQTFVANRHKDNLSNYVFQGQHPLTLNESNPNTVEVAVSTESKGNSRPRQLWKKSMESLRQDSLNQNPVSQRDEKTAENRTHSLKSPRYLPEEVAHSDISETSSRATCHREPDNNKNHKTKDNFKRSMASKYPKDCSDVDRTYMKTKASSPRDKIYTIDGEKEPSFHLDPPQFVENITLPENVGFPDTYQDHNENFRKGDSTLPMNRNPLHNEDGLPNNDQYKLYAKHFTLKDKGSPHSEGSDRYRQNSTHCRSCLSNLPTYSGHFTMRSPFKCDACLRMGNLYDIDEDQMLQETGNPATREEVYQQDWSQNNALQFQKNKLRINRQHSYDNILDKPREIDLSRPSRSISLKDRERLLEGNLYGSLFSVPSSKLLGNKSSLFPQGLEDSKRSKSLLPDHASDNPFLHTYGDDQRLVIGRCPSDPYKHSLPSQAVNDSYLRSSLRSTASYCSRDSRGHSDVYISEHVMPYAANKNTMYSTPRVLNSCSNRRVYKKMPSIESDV
Penta-Mutant/NR2A, sequence (Q00959 23-1464, other chains not shown): as above
T2 sequence (Q00959 23-1464, other chains not shown): as above

## CC(=O)[C@H]1CC[C@H]2[C@@H]3CC[C@@H]4C[C@H](OS(=O)(=O)O)CC[C@]4(C)[C@H]3CC[C@]12C [3α5βS, 3α5β-pregnanolone sulfate]
[1]; [12]
  inhibition at 100 µM: 59%
[2]; splice variant 011 /NR2A
  3α5βS Emax: −0.86 ± 0.04
  3α5βS nHill: 0.96 ± 0.06
[3]; splice variant 001 /NR2A
  3α5βS Emax: −0.89 ± 0.05
  3α5βS nHill: 0.95 ± 0.11
[4]
  3α5βS nH: 1.14 ± 0.16
[5]; splice variant 010 /NR2A
  3α5βS Emax: −0.85 ± 0.02
  3α5βS nHill: 1.04 ± 0.06
[6]; NR1111/NR2A
  maximum extent of inhibition by 3α5βS: 75±7%
[6]; splice variant 111 /NR2A
  3α5βS Emax: −0.75 ± 0.07
  3α5βS nHill: 1.09 ± 0.9
[7]; Penta-Mutant/NR2A, 100 uM steroid, 300 uM NMDA, 50 uM Glycine
  percent decrease in maximum inward current: 42.79±2.29%
[8]; NR1/NR2C
  3α5βS nH: 1.34 ± 0.04
[9]; NR1100/NR2A
  maximum extent of inhibition by 3α5βS: 99±3%
[9]; splice variant 100 /NR2A
  3α5βS Emax: −0.99 ± 0.03
  3α5βS nHill: 0.83 ± 0.02
[10]
  3α5βS nH: 1.06 ± 0.04
[11]; [12]
  inhibition at 100 µM: 56%

## CN[C@H](CC(=O)O)C(=O)O [NMDA, N-methyl-D-aspartate]
[1]; pH 7.5, +100 μM 3α5βS
  NMDA nH: 1.50
  EC50: 158 µM
[1]; pH 7.5, +100 μM PS
  NMDA nH: 2.02
  EC50: 89 µM
[1]; pH 7.5, control
  NMDA nH: 1.67
[1]; pH 8.5, +100 μM PS
  NMDA nH: 1.82
  EC50: 94 µM
[1]; pH 8.5, control
  NMDA nH: 1.93
  EC50: 110 µM
[1]; pH 7.5, control, 10 μM glycine
  EC50: 103 µM
[2]; NR1011/NR2A, absence of PS
  agonist Emax: 1.14 ± 0.02
  agonist nHill: 1.39 ± 0.07
[2]; NR1011/NR2A, presence of 100 mM PS
  agonist nHill: 1.11 ± 0.12
[2]; NR1011/NR2A, presence of PS
  agonist Emax: (1.68 ± 0.06)
[3]; NR1001/NR2A, absence of PS
  agonist Emax: 1.27 ± 0.04
  agonist nHill: 1.46 ± 0.07
[3]; NR1001/NR2A, presence of 100 mM PS
  agonist nHill: 1.21 ± 0.15
[3]; NR1001/NR2A, presence of PS
  agonist Emax: (2.15 ± 0.17)
[4]; +100 μM PS
  agonist Emax: 0.71
  agonist nH: 1.17 ± 0.01
[4]; no PS
  agonist Emax: 1.02 ± 0.01
  agonist nH: 1.26 ± 0.09
[4]; read-out: agonist EC50, +100 μM PS, unit cell empty
  EC50: 6.2 µM
[4]; read-out: agonist EC50, no PS
  EC50: 8 µM
[5]; NR1010/NR2A, absence of PS
  agonist Emax: 1.18 ± 0.03
  agonist nHill: 1.19 ± 0.06
[5]; NR1010/NR2A, presence of PS
  agonist Emax: (1.53 ± 0.08)
  agonist nHill: 1.13 ± 0.09
[6]; NR1111/NR2A, absence of PS
  agonist Emax: 1.34 ± 0.09
  agonist nHill: 1.49 ± 0.02
[6]; NR1111/NR2A, presence of 100 mM PS
  agonist nHill: 1.33 ± 0.22
[6]; NR1111/NR2A, presence of PS
  agonist Emax: (2.27 ± 0.07)
[7]; read-out: NMDA EC50, Penta-mutant/NR2A
  EC50: 55 ± 3.4 µM
[8]; NR1/NR2C, +100 μM PS
  agonist Emax: 0.69
  agonist nH: 1.33 ± 0.03
[8]; NR1/NR2C, no PS
  agonist Emax: 1.05 ± 0.01
  agonist nH: 1.18 ± 0.02
[8]; read-out: agonist EC50, NR1/NR2C, +100 μM PS
  EC50: 15 µM
[9]; NR1100/NR2A, absence of PS
  agonist Emax: 1.36 ± 0.04
  agonist nHill: 1.13 ± 0.04
[9]; NR1100/NR2A, presence
  agonist Emax: (1.60 ± 0.07
  agonist nHill: 1.20 ± 0.06
[10]; +100 μM PS
  agonist Emax: 1.47
  agonist nH: 1.32 ± 0.11
[10]; no PS
  agonist Emax: 1.00 ± 0.02
  agonist nH: 1.28 ± 0.08
[10]; read-out: agonist EC50, +100 μM PS
  EC50: 12 µM
[11]; pH 7.5, +100 μM 3α5βS
  NMDA nH: 1.35
  EC50: 120 µM
[11]; pH 7.5, +100 μM PS
  NMDA nH: 1.24
  EC50: 67 µM
[11]; pH 7.5, control
  NMDA nH: 1.47
[11]; pH 8.5, +100 μM PS
  NMDA nH: 1.44
  EC50: 58 µM
[11]; pH 8.5, control
  NMDA nH: 1.62
  EC50: 94 µM
[11]; pH 7.5, control, 10 μM glycine
  EC50: 71 µM

## pregnenolone sulfate [PS]
[1]; [13]
  maximum relative current (MRC): 2.28
[1]; 100 μM PS, pH 6.5
  maximum relative current (MRC): 4.06
[1]; 100 μM PS, pH 7.5
  percentage potentiation of the maximum NMDA response: 103%
[1]; 100 μM PS, pH 8.5
  maximum relative current (MRC): 1.59 and 1.58
  percentage potentiation of the maximum NMDA response: 47%
[1]; NR1111/NR2A, 100 μM PS
  difference in mrc between pH=6.5 and pH=7.5: 1.8 fold
  difference in mrc between pH=7.5 and pH=8.5: 1.4 fold
[2]; NR1011/NR2A
  Maximum potentiation of NMDA-induced current by PS: 2.14±0.17 fold
  PS Emax: 1.14 ± 0.17
  PS nHill: 1.18 ± 0.18
[3]; NR1001/NR2A
  Maximum potentiation of NMDA-induced current by PS: 2.19±0.09 fold
  PS Emax: 1.19 ± 0.09
  PS nHill: 1.14 ± 0.10
[4]
  PS nH: 1.16 ± 0.08
[4]; 10 μM NMDA, 10 μM glycine
  PS Emax (% Change): −70 ± 6%
[4]; 100 μM PS, 10 μM NMDA
  inhibition of NMDA response: 26±1%
[5]; NR1010/NR2A
  PS Emax: 1.03 ± 0.09
  PS nHill: 1.30 ± 0.18
[6]; NR1111/NR2A
  Maximum potentiation of NMDA-induced current by PS: 1.51±0.04 fold
  PS nHill: 1.28 ± 0.19
[6]; NR1111/NR2A, curve 1+Emax/(1+(EC50/c)n)
  PS Emax: 0.51 ± 0.04
[7]; 100 uM PS, 300 uM NMDA, 50 uM Glycine
  reduction in PS potentiation of the NMDA response vs wild type: 40% and 47.5±8.80%
[8]
  fold less potent as inhibitor of NR1/NR2C and NR1/NR2D than in potentiating NR1/NR2A and NR1/NR2B: 3.4- to 5.6 fold
[8]; NR1/NR2C
  PS nH: 1.32 ± 0.29
[8]; NR1/NR2C, 100 μM PS, […] μM NMDA
  inhibition of NMDA-induced current: 35±3%
[8]; NR1/NR2C, […] μM NMDA, 10 μM glycine
  PS Emax (% Change): −63 ± 9%
[9]; NR1100/NR2A
  Maximum potentiation of NMDA-induced current by PS: 1.67±0.07 fold
  PS Emax: 0.67 ± 0.07
  PS nHill: 1.33 ± 0.08
[10]
  PS nH: 1.42 ± 0.11
[10]; 100 μM PS, […] μM NMDA
  enhancement of NMDA-induced current: 78±9%
[10]; […] μM NMDA, 10 μM glycine
  PS Emax (% Change): +202 ± 10%
[11]; [13]
  maximum relative current (MRC): 1.41
[11]; 100 μM PS, pH 6.5
  maximum relative current (MRC): 2.24
[11]; 100 μM PS, pH 7.5
  percentage potentiation of the maximum NMDA response: 50%
[11]; 100 μM PS, pH 8.5
  maximum relative current (MRC): 1.35
  percentage potentiation of the maximum NMDA response: 24%
[11]; NR1011/NR2A, 100 μM PS
  difference in mrc between pH=6.5 and pH=7.5: 1.7 fold
